These sequences were tested on FBXW7 (assay: Ratiometric EGFP/DsRed protein degradation assay with degron probes). Conditions: putative degron motif in EGFP-fused probe with AAKG2 MAPK docking motif; HEK293T, 48 h after transfection, EGFP/DsRed ratio with and without FBXW7 plasmid; search cycles 1-4.
Type: cell-based, human
From the text: In order to be able to test putative phosphodegron motifs, a ratiometric protein level monitoring method was adapted to monitor MAPK controlled FBXW7 mediated protein degradation. Briefly, intact DsRed and an EGFP-chimera were expressed in HEK293T cells in equal amounts from an expression plasmid, giving an EGFP/DsRed fluorescence ratio close to one under non-degrading conditions. EGFP was fused to a probe comprised of a putative degron sequence and a known MAPK binding docking motif. EGFP signal is expected to diminish faster than DsRed in cells with more FBXW7 if the probe responded to degradation.
We started out from an intentionally general consensus motif of FBXW7 degrons, inspired by the liberal [TS]P..[TS]P pattern defined for yeast Cdc4 substrates, and scanned the human disordered part of the proteome using SliMSearch4 (the disorder score cut-off was 0.4 and flank length was 5). In all, 22 motifs from this list were subjectively chosen and tested in the ratiometric degradation assay giving only 5 positives (see Supplementary Table S1). Based on the results of this first round, by taking information both from the identified positives and negatives, the consensus motif definition was narrowed to requiring a proline at P + 2, but motifs were allowed to have a phospho-mimicking residue (D or E) at P + 4 because it had been formerly reported that this second phosphorylatable residue may be replaced by aspartate or glutamate. […] In the third round, hydrophobic amino acids were more strictly required at positions −1/−2 and P − 1/2/3 positions were further narrowed and P + 4 position was relaxed based on the identified negatives, which gave a higher hit rate (4 out of 6). This third round gave functional motifs at a good rate, but the used motif definition was very restrictive compared to other known motifs. Finally, in the fourth round, we gave up using an optimal consensus and established the positional relaxation model. […] Hits on this final, most predictive list are presented in Supplementary Table S2. All entries were filtered for motif locations by UniProt annotations, discarding all enzyme-inaccessible (e.g., extracellular) instances. Motifs that had any overlapping PFAM domain indicated were manually assessed using the AlphaFold EBI website. Out of these, only motifs that were highly accessible and located outside of confidently predicted folded domains were kept. We also added kinase consensus compatibility to every motif and the number of experiments where phosphorylation could be detected from PhosphoSitePlus.
The chimera degron module was ordered from IDT as gene Block (gBlock). It consisted of a coiled coil dimerization motif (GCN4: EELLSKNYHLENEVARLKK) to increase sensitivity by allowing multivalent binding, a MAPK binding docking motif (AAKG2: KKNASQKRRSLRVHIPDL), and the CycECO degron motif. The motifs were separated by Gly-Ser-Asn linkers and the gBlock was designed so that the motifs could be easily changed by using unique sets of restriction endonucleases. The gBlock was sub-cloned into the Gateway pENTR4 entry plasmid (Thermo Fisher, Waltham, MA, USA) using restriction enzymes (SalI and NotI). The pENTR4-chimera and the destination plasmid (MSCV-CMV-DsRed-IRES-EGFP-DEST from Addgene; 41941), [28]) were subjected to gateway cloning using LR clonase II enzyme (Invitrogen) to obtain the first DsRed-EGFP-chimera DNA construct containing the cycECO degron. Oligonucleotides corresponding to different degron sequences and docking motifs were ligated into the DsRed-EGFP-chimera DNA construct. The list of all the oligonucleotides used for cloning is provided in Supplementary Table S3. pcDNA3-FLAG-FBXW7α was a kind gift from Michael Pagano (New York University). The FBXW7 arginine mutant (Arg mutant: R465C; R479Q; R505L) was created using two-step PCR and cloned into the pcDNA3-FLAG plasmid. […]
With “AHELPLTPPADPSYPY [SP5, putative FBXW7 degron motif tested as EGFP-fused degradation probe]” the Outcome was “Positive (tested positive, where +FBXW7/control protein level ratio was lower than 1)”. In the case of “AIRQSPSPPPEESRG [PDE4A, putative FBXW7 degron motif tested as EGFP-fused degradation probe]”, the Outcome was “Negative”. In the case of “AKEFAPATPPSTPHNSSV [AKAP11-2nd, putative FBXW7 degron motif tested as EGFP-fused degradation probe]”, the Outcome was “Negative”. In the case of “APPIPSPPPSPPPSPAPLEP [CAMTA2, putative FBXW7 degron motif tested as EGFP-fused degradation probe]”, the Outcome was “Positive (tested positive, where +FBXW7/control protein level ratio was lower than 1)”. For “ASPTPPSPPPPPSPPASPSLPP [PP1R37, putative FBXW7 degron motif tested as EGFP-fused degradation probe]”, the Outcome was “Negative”. For “AVRTPPRTPNIV [KSR2-a, putative FBXW7 degron motif tested as EGFP-fused degradation probe]”, the Outcome was “Negative”. “AVVRTPPKSPSSAK [Tau, putative FBXW7 degron motif tested as EGFP-fused degradation probe]” was tested, and the Outcome was “Negative”. In the case of “DLLAALPTPPHNQTEDV [KMT2D-3rd, putative FBXW7 degron motif tested as EGFP-fused degradation probe]”, the Outcome was “Positive (tested positive, where +FBXW7/control protein level ratio was lower than 1)”. “DRNVIPDTPPSTPLVPSR [AKAP11-1st, putative FBXW7 degron motif tested as EGFP-fused degradation probe]” was tested, and the Outcome was “Positive (tested positive, where +FBXW7/control protein level ratio was lower than 1)”. With “ELDLMPYTPPQSTPKSA [PBRM1, putative FBXW7 degron motif tested as EGFP-fused degradation probe]” the Outcome was “Negative”. “EQPSHTPPQTPTPPSTPPLGKQ [ARHGAP17, putative FBXW7 degron motif tested as EGFP-fused degradation probe]” was tested, and the Outcome was “Negative”. For “FSYQESPPRSPRRMSFSG [AAKG2, putative FBXW7 degron motif tested as EGFP-fused degradation probe]”, the Outcome was “Negative”. In the case of “GEAAGSPVPTPPRSPAQEE [Bcl2L12, putative FBXW7 degron motif tested as EGFP-fused degradation probe]”, the Outcome was “Negative”. For “GEGDRGVSPPPSPFFSAI [FRY, putative FBXW7 degron motif tested as EGFP-fused degradation probe]”, the Outcome was “Negative”. With “GGHLESPARSLPQRP [FAAP20, putative FBXW7 degron motif tested as EGFP-fused degradation probe]” the Outcome was “Negative”. For “GQAATPETPQPSPPGGSGS [HNF4, putative FBXW7 degron motif tested as EGFP-fused degradation probe]”, the Outcome was “Negative”. For “GSDGASPPASPSIIPR [MAP3K10, putative FBXW7 degron motif tested as EGFP-fused degradation probe]”, the Outcome was “Negative”. In the case of “IHQAGGSPPASSTSSS [RAPTOR, putative FBXW7 degron motif tested as EGFP-fused degradation probe]”, the Outcome was “Negative”. With “KHSNSPPLVTPPQSPVSPQPPA [SMTL2, putative FBXW7 degron motif tested as EGFP-fused degradation probe]” the Outcome was “Positive (tested positive, where +FBXW7/control protein level ratio was lower than 1)”. “KMSQPGSPSPKTPTPSTPGDTQ [CHD4, putative FBXW7 degron motif tested as EGFP-fused degradation probe]” was tested, and the Outcome was “Negative”. “KQFLISPPASPPVGWKQV [RCAN1, putative FBXW7 degron motif tested as EGFP-fused degradation probe]” was tested, and the Outcome was “Negative”. For “KTGEQTPPHEHICLRDELP [JIP1, putative FBXW7 degron motif tested as EGFP-fused degradation probe]”, the Outcome was “Negative”. “LGPVHPTPPPSSPQEP [KMT2D-a, putative FBXW7 degron motif tested as EGFP-fused degradation probe]” was tested, and the Outcome was “Negative”. In the case of “MVQRLGLISPPASQVSTA [GLIS3, putative FBXW7 degron motif tested as EGFP-fused degradation probe]”, the Outcome was “Negative”. “NYGARPPPTPPASPPPSV [KMT2E, putative FBXW7 degron motif tested as EGFP-fused degradation probe]” was tested, and the Outcome was “Positive (tested positive, where +FBXW7/control protein level ratio was lower than 1)”. With “PLGPPATPPGSPPCSLL [PKMYT1, putative FBXW7 degron motif tested as EGFP-fused degradation probe]” the Outcome was “Negative”. “PPEESPLSPPPEASRLS [KMT2D-b, putative FBXW7 degron motif tested as EGFP-fused degradation probe]” was tested, and the Outcome was “Negative”. In the case of “PPLQVPPSPPASPPMSPS [PRR36, putative FBXW7 degron motif tested as EGFP-fused degradation probe]”, the Outcome was “Positive (tested positive, where +FBXW7/control protein level ratio was lower than 1)”. “PRPPRPPSPPPEPETTD [SETD1B, putative FBXW7 degron motif tested as EGFP-fused degradation probe]” was tested, and the Outcome was “Negative”. In the case of “PSFPPTPPTPPASPPHTPV [EIF4G3, putative FBXW7 degron motif tested as EGFP-fused degradation probe]”, the Outcome was “Positive (tested positive, where +FBXW7/control protein level ratio was lower than 1)”. “PSTTVGSHSPPETPVLTR [ZMYND1 or 8, putative FBXW7 degron motif tested as EGFP-fused degradation probe]” was tested, and the Outcome was “Negative”. “QGQKVGSLTPPSSPKTQRA [AAK1, putative FBXW7 degron motif tested as EGFP-fused degradation probe]” was tested, and the Outcome was “Negative”. In the case of “QGYLSPESSPPASPVPACS [CREB5, putative FBXW7 degron motif tested as EGFP-fused degradation probe]”, the Outcome was “Negative”. For “QQAPLTPPNTPDPRSPPNPDNIA [Myozenin2, putative FBXW7 degron motif tested as EGFP-fused degradation probe]”, the Outcome was “Positive (tested positive, where +FBXW7/control protein level ratio was lower than 1)”. With “RPALPATPPATPPAASP [CDT1, putative FBXW7 degron motif tested as EGFP-fused degradation probe]” the Outcome was “Positive (tested positive, where +FBXW7/control protein level ratio was lower than 1)”. In the case of “SAVQTPPSPPVSPRVLS [PCARE, putative FBXW7 degron motif tested as EGFP-fused degradation probe]”, the Outcome was “Negative”. “SDLDKTPPPSPPPEED [CHD7, putative FBXW7 degron motif tested as EGFP-fused degradation probe]” was tested, and the Outcome was “Negative”. In the case of “SPFHGSSPPQSTPLSPPPLTPK [DOCK5, putative FBXW7 degron motif tested as EGFP-fused degradation probe]”, the Outcome was “Negative”.
